From US7868005B2, “Pyrazinyl substituted piperazine-piperidines with CXCR3 antagonist activity” (Schering Corporation, priority 2005, dated 2011)

Target: T1, human CXCR3 (N-delta 4) (Homo sapiens, UniProt P49682)
T1 construct: CD8 leader (N); Flag; expressed in transfected cells; membranes prepared
T1 sequence (P49682 5-368 limits assumed): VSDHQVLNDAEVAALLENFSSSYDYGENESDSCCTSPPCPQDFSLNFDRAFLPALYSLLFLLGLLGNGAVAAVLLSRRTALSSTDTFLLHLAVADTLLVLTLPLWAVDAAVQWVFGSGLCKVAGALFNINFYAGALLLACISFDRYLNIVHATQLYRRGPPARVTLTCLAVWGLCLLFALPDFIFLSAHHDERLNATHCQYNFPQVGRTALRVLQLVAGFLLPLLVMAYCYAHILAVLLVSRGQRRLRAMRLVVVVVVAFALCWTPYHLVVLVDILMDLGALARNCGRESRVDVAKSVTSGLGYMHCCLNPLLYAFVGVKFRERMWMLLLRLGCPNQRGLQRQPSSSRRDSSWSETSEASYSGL
Assay: Human CXCR3 (N-delta 4) Scintillation Proximity Assay (SPA), [125I] IP-10 binding to Ba/F3-hCXCR3 membranes
Settings: IC50 rating, Table 1; read-out: IC50

IC50 [nM] | Compound
25 to 100 | CC[C@H]1CN(c2nc(N)c(C(=O)NCCO)nc2Cl)CCN1C1CCN(Cc2ccc(F)c(F)c2O)CC1 [compound 178]
< 25 | CC[C@H]1CN(c2nc(N)c(C(=O)NCCO)nc2Cl)CCN1C1CCN(Cc2ccc(C(=O)OC)cc2)CC1 [compound 117]
25 to 100 | CC[C@H]1CN(c2nc(N)c(C(=O)NCC(N)=O)nc2Cl)CCN1C1CCN(Cc2ccc(Cl)cc2)CC1 [compound 213]
< 25 | CC[C@H]1CN(c2nc(N)c(C(=O)NCCO)nc2Cl)CCN1C1CCN(Cc2ccc(Cl)cc2OCCNC(=O)C(C)(C)C)CC1 [compound 129]
< 25 | CC[C@H]1CN(c2ncc(C(N)=O)nc2C)CCN1C1CCN([C@H](CO)c2ccc(Cl)cc2)CC1 [compound 444]
< 25 | CC[C@H]1CN(c2ncc(C(N)=O)nc2Cl)CCN1C1CCN(Cc2ccc(Cl)cc2[C@H](O)C(N)=O)CC1 [compound 285]
25 to 100 | CC[C@H]1CN(c2nc(N)c(C(=O)NNC(C)=O)nc2Cl)CCN1C1CCN(Cc2ccc(Cl)cc2)CC1 [compound 272]
> 100 | CC[C@H]1CN(c2nc(N)c(C(N)=O)nc2Cl)CCN1C1CCN(Cc2ccc(-n3cncn3)cc2)CC1 [compound 54]
< 25 | CC[C@H]1CN(c2nc(N)c(C(=O)NCCO)nc2Cl)CCN1C1CCN(Cc2ccc(OC)cc2)CC1 [compound 126]
< 25 | CC[C@H]1CN(c2nc(N)c(C(=O)NCCO)nc2Cl)CCN1C1CCN([C@@H](CO)c2ccc(F)c(F)c2)CC1 [compound 122]
> 100 | CC[C@H]1CN(c2nc(N)c(C(=O)NCCO)nc2Cl)CCN1C1CCN([C@H](C(=O)OC)c2ccc(C#N)cc2)CC1 [compound 200]
< 25 | CC[C@H]1CN(c2ncc(C(N)=O)nc2C)CCN1C1CCN(Cc2ccc(C)c(F)c2)CC1 [compound 433]
> 100 | CC[C@H]1CN(c2nc(N)c(C(=O)NC)nc2Cl)CCN1C1CCN(CCCOc2ccc(F)cc2)CC1 [compound 78]
25 to 100 | CC[C@H]1CN(c2ncc(C(N)=O)nc2C)CCN1C1CCN(C(=O)c2ccc(F)c(F)c2)CC1 [compound 408]
< 25 | CC[C@H]1CN(c2nc(N)c(C(=O)NCCO)nc2Cl)CCN1C1CCN(Cc2ccc(Cl)cc2S(C)(=O)=O)CC1 [compound 422]
